Test results as given in PubChem BioAssay AID2060513 (Molecular Pharmacology Branch, DTP, NCI, 2025).
“And” between values parts separate entries of the source, which are not always exact repeats. Equal values may be shown once.

System: 299254-011-R-J1-PDC complex spheroids viability
Experiment: Anticancer human tumor 299254-011-R-J1-PDC patient-derived melanoma cell line growth inhibition [GQUAD]
Conditions: for viability, T/C: stronger effect = lower value; active = viability on the fitted dose curve at most 10% of control; inactive = the rest
Source text: DNA G-quadruplex Stabilizer Agents in Combinations in Complex Spheroids
A high-throughput screen of multi-cell type tumor spheroids was designed to identify active combinations of DNA G-quadruplex stabilizer agents and targeted small molecules. Complex spheroids include a stromal component modeled by human endothelial cells (HUVEC) and fibroblasts modeled by human mesenchymal stem cells (MSCs). The concentration ranges selected for each drug and investigational agent were based upon clinically achievable concentrations if the clinical Cmax of the agent was known.
Compounds. The drugs and investigational agents: pidnarulex (CX-5461; NSC782164), APTO-253 (NSC789042), BRACO-19 (NSC847499), peposertib (NSC802822), ceralasertib (NSC780249), elimusertib (NSC800525), camonsertib (NSC841442), AZD-1390 (NSC803789), olaparib (NSC753686), talazoparib (NSC767125), ART-558 (NSC835418), sotorasib (NSC818433), MRTX-1133 (NSC836407), SN-38 (NSC673596), topotecan (NSC609699), etoposide (NSC141540), doxorubicin (NSC123127), gemcitabine (NSC613327), 5-fluorouracil (NSC19893), paclitaxel (NSC125973), vemurafenib (NSC761431), panobinostat (NSC761190), R-306465 (JNJ-16241199; NSC773264), adavosertib (NSC754352), TP-3654 (NSC805149), carboplatin (NSC241240), KSQ-4279 (NSC840948), and staurosporine (NSC755774) were obtained from the National Cancer Institute (NCI) Developmental Therapeutics Program Chemical Repository (34). The FDA-approved anticancer drug set is available from the NCI Developmental Therapeutics Program. […] The stock solutions were prepared in dimethyl sulfoxide (DMSO, Sigma-Aldrich, St. Louis, MO, cat. D2650) at 800-fold the tested concentration and stored at -70 degrees C prior to their use. All drugs and investigational agents were tested over a range starting from a high concentration at or near the clinical Cmax and decreasing in half-log increments. If the clinical Cmax for an agent had not been determined, the highest concentration tested was 10 microM.
2.3 Cell Culture. All cells were maintained in an incubator at 37 degrees C and 5% CO2 with 95% humidity. The PDC lines were cultured according to standard operating procedures established by the NCI PDMR. All PDCs were thawed and cultured in Matrigel-coated flasks prepared with a working solution of 1X Ham's F-12 nutrient mix, without supplementation (Invitrogen, cat. 11765054), 100 U/mL penicillin-streptomycin (Invitrogen, cat. 15140122), and 2.5% Matrigel (Corning Inc., cat. 354248) for the first three passages. The 857933-349-R-J2-PDC line was cultured in 6C/Colon 1B media, which includes advanced DMEM/F-12 (Thermo Fisher Scientific, cat. 12634028), 10 mM HEPES (Thermo Fisher Scientific, cat. 15630080), 1X GlutaMAX supplement (Thermo Fisher Scientific, cat. 35050061), 0.1 mg/mL primocin (InvivoGen, cat. ant-pm-2), 10% defined fetal bovine serum, heat inactivated (HyClone Laboratories Inc., cat. SH30070.03HI), 50% L-WRN conditioned media (ATCC, cat. CRL-3276), 1.25 mM N-Acetyl-L-cysteine (Sigma-Aldrich, cat. A9165), 10 mM nicotinamide (Sigma-Aldrich, cat. N0636), 1X B-27 supplement (Thermo Fisher Scientific, cat. 17504044), 1X N-2 supplement (Thermo Fisher Scientific, cat. 17502048), 10 microM Y-27632 dihydrochloride (Tocris Bioscience, cat. 1254), and 50 ng/mL human EGF recombinant protein (Thermo Fisher Scientific, cat. PHG0311). The 485176-168-R4-J1-PDC line was cultured in Panc media, which includes all 6C/Colon 1B media components plus 100 ng/mL human FGF-10 (Thermo Fisher Scientific, cat. 100-26), 500 nM SB-431542 (Selleckchem, cat. S1067), and gastrin (Tocris, cat. 3006).
[…]
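Note: spheroids exposed to the agents for seven days before readout.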
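Throughout, for viability, T/C: percent viability relative to DMSO vehicle control wells = 100%.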

Nc1ccn(C2OC(CO)C(O)C2(F)F)c(=O)n1 (centres undefined) + Cc1cnc(CNC(=O)c2c(=O)c3ccc(N4CCCN(C)CC4)nc3n3c2sc2ccccc23)cn1
< 0.0316 µM: IC50 (curve of first compound, second compound 10 µM)
1 µM: IC50 (curve of first compound, second compound 1 µM)
> 10 µM: IC50 (curve of first compound, second compound 0.0316 µM) | IC50 (curve of first compound, second compound 0.316 µM)
0.835 µM: IC50 (curve of first compound, second compound 3.16 µM)
0.282 µM: IC50 (curve of first compound, second compound 0.1 µM)
inactive: viability, T/C (second compound 0.0316 µM, first compound 0.0316 µM) 102% | viability, T/C (second compound 0.0316 µM, first compound 0.1 µM) 76.5% | viability, T/C (second compound 0.0316 µM, first compound 0.316 µM) 64.3% | viability, T/C (second compound 0.0316 µM, first compound 1 µM) 44.7% | viability, T/C (second compound 0.0316 µM, first compound 3.16 µM) 56.7% | viability, T/C (second compound 0.0316 µM, first compound 10 µM) 68% | viability, T/C (second compound 0.1 µM, first compound 0.0316 µM) 90.4% | viability, T/C (second compound 0.1 µM, first compound 0.1 µM) 72% | viability, T/C (second compound 0.1 µM, first compound 0.316 µM) 45.6% | viability, T/C (second compound 0.1 µM, first compound 1 µM) 48% | viability, T/C (second compound 0.1 µM, first compound 3.16 µM) 50.1% | viability, T/C (second compound 0.1 µM, first compound 10 µM) 46.7% | viability, T/C (second compound 0.316 µM, first compound 0.0316 µM) 80.5% | viability, T/C (second compound 0.316 µM, first compound 0.1 µM) 78.8% | viability, T/C (second compound 0.316 µM, first compound 0.316 µM) 69% | viability, T/C (second compound 0.316 µM, first compound 1 µM) 56.1% | viability, T/C (second compound 0.316 µM, first compound 3.16 µM) 54.3% | viability, T/C (second compound 0.316 µM, first compound 10 µM) 70.3% | viability, T/C (second compound 1 µM, first compound 0.0316 µM) 85.6% | viability, T/C (second compound 1 µM, first compound 0.1 µM) 87% | viability, T/C (second compound 1 µM, first compound 0.316 µM) 48.7% | viability, T/C (second compound 1 µM, first compound 1 µM) 44.5% | viability, T/C (second compound 1 µM, first compound 3.16 µM) 60.5% | viability, T/C (second compound 1 µM, first compound 10 µM) 58.8% | viability, T/C (second compound 3.16 µM, first compound 0.0316 µM) 79.3% | viability, T/C (second compound 3.16 µM, first compound 0.1 µM) 69.3% | viability, T/C (second compound 3.16 µM, first compound 0.316 µM) 64.6% | viability, T/C (second compound 3.16 µM, first compound 1 µM) 42.9% | viability, T/C (second compound 3.16 µM, first compound 3.16 µM) 54.4% | viability, T/C (second compound 3.16 µM, first compound 10 µM) 44.6% | viability, T/C (second compound 10 µM, first compound 0.0316 µM) 50% | viability, T/C (second compound 10 µM, first compound 0.1 µM) 24.9% | viability, T/C (second compound 10 µM, first compound 0.316 µM) 47.8% | viability, T/C (second compound 10 µM, first compound 1 µM) 49.9% | viability, T/C (second compound 10 µM, first compound 3.16 µM) 48.3% | viability, T/C (second compound 10 µM, first compound 10 µM) 0.4%

CCCS(=O)(=O)Nc1ccc(F)c(C(=O)c2c[nH]c3ncc(-c4ccc(Cl)cc4)cc23)c1F
inactive: viability, T/C (compound 0.0316 µM) 130% and 120% and 109% | viability, T/C (compound 0.1 µM) 101% and 98.5% and 102% | viability, T/C (compound 0.316 µM) 92.2% and 107% and 95.9% | viability, T/C (compound 1 µM) 107% and 104% and 112% | viability, T/C (compound 3.16 µM) 80.6% and 104% and 103% | viability, T/C (compound 10 µM) 39.9% and 45.2% and 46.6%
7.69 µM and 9.11 µM and 9.32 µM: IC50 (curve of compound)

CC(=O)O[C@H]1C(=O)[C@@]2(C)[C@H]([C@H](OC(=O)c3ccccc3)[C@]3(O)C[C@H](OC(=O)[C@H](O)[C@@H](NC(=O)c4ccccc4)c4ccccc4)C(C)=C1C3(C)C)[C@]1(OC(C)=O)CO[C@@H]1C[C@@H]2O
inactive: viability, T/C (compound 0.0316 µM) 102% and 92% and 92.4% | viability, T/C (compound 0.1 µM) 86.3% and 73.8% and 59% | viability, T/C (compound 0.316 µM) 60.6% and 55.7% and 63.9% | viability, T/C (compound 1 µM) 32% and 37.8% and 26.7% | viability, T/C (compound 3.16 µM) 18.9% and 18.2% and 24.1% | viability, T/C (compound 10 µM) 12% and 17.6% and 19.5%
0.483 µM and 0.423 µM and 0.306 µM: IC50 (curve of compound)

O=c1[nH]cc(F)c(=O)[nH]1
> 10 µM: IC50 (curve of compound)
inactive: viability, T/C (compound 0.0316 µM) 117% and 81.7% and 100% | viability, T/C (compound 0.1 µM) 110% and 105% and 96.5% | viability, T/C (compound 0.316 µM) 114% and 113% and 103% | viability, T/C (compound 1 µM) 103% and 86.2% and 122% | viability, T/C (compound 3.16 µM) 114% and 113% and 83.2% | viability, T/C (compound 10 µM) 103% and 85.3% and 87.8%

C=CCn1c(=O)c2cnc(Nc3ccc(N4CCN(C)CC4)cc3)nc2n1-c1cccc(C(C)(C)O)n1
inactive: viability, T/C (compound 0.0316 µM) 114% and 117% and 102% | viability, T/C (compound 0.1 µM) 98.4% and 92.5% and 100% | viability, T/C (compound 0.316 µM) 87.5% and 73% and 83.4% | viability, T/C (compound 1 µM) 60% and 62% and 52.8% | viability, T/C (compound 3.16 µM) 32.2% and 34% and 37.9% | viability, T/C (compound 10 µM) 36.5% and 32.4% and 20.3%
1.58 µM and 1.57 µM and 1.38 µM: IC50 (curve of compound)

Nc1ccn(C2OC(CO)C(O)C2(F)F)c(=O)n1 (centres undefined)
> 10 µM: IC50 (curve of compound)
inactive: viability, T/C (compound 0.0316 µM) 95.8% and 98.2% and 86.5% | viability, T/C (compound 0.1 µM) 83.6% and 88.4% and 76% | viability, T/C (compound 0.316 µM) 80.3% and 72.2% and 61.7% | viability, T/C (compound 1 µM) 41.2% and 60.1% and 52.5% | viability, T/C (compound 3.16 µM) 58.2% and 50.2% and 50.8% | viability, T/C (compound 10 µM) 53.6% and 73% and 51.9%

COc1ncnc(C2CC2)c1-c1ncc2cnn(Cc3ccc(-c4nc(C(F)(F)F)cn4C(C)C)cc3)c2n1
> 10 µM: IC50 (curve of compound)
inactive: viability, T/C (compound 0.0316 µM) 105% and 110% and 90.2% | viability, T/C (compound 0.1 µM) 115% and 110% and 86.3% | viability, T/C (compound 0.316 µM) 95.2% and 96.1% and 84.1% | viability, T/C (compound 1 µM) 102% (2×) and 85% | viability, T/C (compound 3.16 µM) 107% and 93.2% and 89.6% | viability, T/C (compound 10 µM) 82.6% and 87.6% and 91.8%
